Source: ChEMBL document CHEMBL4382290, “Tetrahydroisoquinoline CXCR4 Antagonists Adopt a Hybrid Binding Mode within the Peptide Subpocket of the CXCR4 Receptor” (ACS Med Chem Lett, 2019)

Each molecule was assayed on Human immunodeficiency virus 1 (assay: Antiviral activity against CXCR4 tropic HIV1 3B infected in human MAGI-CCR5/CXCR4 cells measured after 2 to 6 days by beta-galactosidase reporter gene assay). Details: Human immunodeficiency virus 1, 3B.
Type: functional, organism-based

Question: With `NCCCCN(C[C@H]1NCCc2ccccc21)[C@H]1CCCc2cccnc21` as the molecule, how does the IC50 read?
Answer: 450 nM

Question: How did the IC50 turn out when `NCCCCN(C[C@@H]1Cc2ccccc2CN1)[C@H]1CCCc2cccnc21` was run?
Answer: 1400 nM

Question: How did the IC50 turn out when `NCCCCN(C[C@@H]1NCCc2ccccc21)[C@H]1CCCc2cccnc21` was run?
Answer: 30000 nM

Question: How did the IC50 turn out when `NCCCCN(C[C@@H]1CCc2ccccc2N1)[C@H]1CCCc2cccnc21` was run?
Answer: 30000 nM

Question: How did the IC50 turn out when `NCCCCN(C[C@H]1CCc2ccccc2N1)[C@H]1CCCc2cccnc21` was run?
Answer: 250 nM

Question: How did the IC50 turn out when `NCCCCN(C[C@H]1Cc2ccccc2CN1)[C@H]1CCCc2cccnc21` was run?
Answer: 5 nM

Question: With `Cc1ccc(-c2ccc3c(c2)C=C(C(=O)Nc2ccc(C[N+](C)(C)C4CCOCC4)cc2)CCC3)cc1` as the molecule, how does the IC50 read?
Answer: > 10000 nM

Question: For `NCCCCN(C[C@H]1CCCCN1)[C@H]1CCCc2cccnc21`, which IC50 is on record?
Answer: 1120 nM

Question: With `NCCCN(C[C@H]1Cc2ccccc2CN1)[C@H]1CCCc2cccnc21` as the molecule, how does the IC50 read?
Answer: 380 nM

Question: How did the IC50 turn out when `NCCCCCN(C[C@H]1Cc2ccccc2CN1)[C@H]1CCCc2cccnc21` was run?
Answer: 170 nM

Question: How did the IC50 turn out when `NCCN(C[C@H]1Cc2ccccc2CN1)[C@H]1CCCc2cccnc21` was run?
Answer: 6200 nM

Question: For `NCCCCN(C[C@H]1Cc2ccccc2CN1)[C@H]1CCCc2ccccc21`, which IC50 is on record?
Answer: 1500 nM
